Assay results: patent US11351137B2, “Composition and method for dual targeting in treatment of neuroendocrine tumors” (NANOPHARMACEUTICALS LLC, priority 2018, dated 2022)
“Also recorded” adds a separate entry of the source. Blank lines part the entries; values can stand above or below the compound they belong to.

Experiments:
[1] = tested on: SKNF2 cell lines; experiment: Comparative examples: BG, BG derivatives, TAT derivative and co-administration versus Composition 300 in mice implanted with SKNF2 cell lines; format: in vivo; settings: for Percentage of Tumor Growth Suppression / Reduction of tumor viability: Dosage 3 mg/kg
Description: FIGS. 12a and 12b shown the effect of the control and treatment with BG, BG derivatives, thyrointegrin antagonists such as TAT derivatives, and combinations (co-administration) thereof, versus Composition 300 (BG-P-TAT) on tumor cell necrosis of mice implanted with SKNF2 cell lines.
Further, even a combination treatment of two triazole tetrac derivatives in combination delivered subcutaneously daily for three (3) weeks at 3 mg/kg only achieves a reduction of 40-50% for tumor growth and tumor viability. Similar results are obtained with treatments using benzyl guanidine and benzyl guanidine derivatives.
For example, the graph of FIG. 12b includes the effect of a triazole tetrac derivative (referred to as TAT) on tumor weight when compared with a control group (phosphate-buffered saline “PBS”). The specific derivative tested was beta cyclodextrin triazole tetrac.
Again, beta cyclodextrin triazole tetrac was the tetrac derivative used.
Composition 300 achieves approximately 80% reduction in tumor. Further, the viability of residual tumor was reduced by 80%.

[2] = tested on: neuroblastoma SKNF1 cells; experiment: Compositions 7a, 7b and 15 on subcutaneously implanted SKNF1 neuroblastoma tumor in female nude mice; format: in vivo
Description: The efficacy of Compositions 7a (dI-BG-P-TAT), 7b (dM-BG-P-TAT), and 15 (BG-P-PAT) were tested using neuroblastoma SKNF1 cells implanted into nude female mice similar to the examples discussed above for Composition 300 (BG-P-TAT).
Further, to compare the histopathological changes in tumors of untreated and treated groups, tumors were harvested, fixed, and stained with hematoxylin and eosin (H&E). Necrosis at low magnification of tumors from animals treated with compounds 7a, 7b, and 15 versus control is seen clearly as shown in Figure. […] On the other hand, tumors from the untreated group had mostly viable tumor cells. […]

[3] = biological target: purified integrin αvβ3 receptor (Homo sapiens, UniProt P05106+P06756); experiment: Binding affinity towards purified integrin αvβ3 receptor
Sequence of purified integrin αvβ3 receptor (P06756 31-889 limits assumed): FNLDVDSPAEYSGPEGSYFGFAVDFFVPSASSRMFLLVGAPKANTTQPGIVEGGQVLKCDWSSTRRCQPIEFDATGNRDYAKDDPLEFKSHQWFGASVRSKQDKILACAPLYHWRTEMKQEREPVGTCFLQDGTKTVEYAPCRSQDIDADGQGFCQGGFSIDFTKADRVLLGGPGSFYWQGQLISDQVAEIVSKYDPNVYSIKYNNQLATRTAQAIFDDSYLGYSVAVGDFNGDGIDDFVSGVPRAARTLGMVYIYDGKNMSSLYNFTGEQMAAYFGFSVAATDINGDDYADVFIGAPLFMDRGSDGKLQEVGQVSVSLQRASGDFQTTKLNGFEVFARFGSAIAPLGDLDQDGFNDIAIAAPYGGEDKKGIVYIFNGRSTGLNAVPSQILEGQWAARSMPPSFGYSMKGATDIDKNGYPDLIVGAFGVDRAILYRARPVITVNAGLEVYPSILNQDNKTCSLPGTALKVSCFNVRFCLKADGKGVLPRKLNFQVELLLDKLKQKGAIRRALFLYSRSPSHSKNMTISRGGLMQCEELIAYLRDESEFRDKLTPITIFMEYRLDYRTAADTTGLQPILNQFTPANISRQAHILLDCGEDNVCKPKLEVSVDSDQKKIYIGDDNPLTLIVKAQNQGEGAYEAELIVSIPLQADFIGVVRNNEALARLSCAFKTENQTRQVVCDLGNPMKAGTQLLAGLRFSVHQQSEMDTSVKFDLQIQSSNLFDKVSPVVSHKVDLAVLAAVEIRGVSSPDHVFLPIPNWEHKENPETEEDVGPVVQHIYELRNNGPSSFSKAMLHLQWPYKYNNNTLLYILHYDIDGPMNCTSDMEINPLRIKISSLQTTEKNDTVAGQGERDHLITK
Sequence of purified integrin αvβ3 receptor (P06756 891-1048 partner limits assumed): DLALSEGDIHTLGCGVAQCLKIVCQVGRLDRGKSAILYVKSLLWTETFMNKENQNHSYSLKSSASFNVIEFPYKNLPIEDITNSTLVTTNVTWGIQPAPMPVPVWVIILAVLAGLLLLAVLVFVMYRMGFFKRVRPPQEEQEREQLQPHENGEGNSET
Sequence of purified integrin αvβ3 receptor (P05106 27-788): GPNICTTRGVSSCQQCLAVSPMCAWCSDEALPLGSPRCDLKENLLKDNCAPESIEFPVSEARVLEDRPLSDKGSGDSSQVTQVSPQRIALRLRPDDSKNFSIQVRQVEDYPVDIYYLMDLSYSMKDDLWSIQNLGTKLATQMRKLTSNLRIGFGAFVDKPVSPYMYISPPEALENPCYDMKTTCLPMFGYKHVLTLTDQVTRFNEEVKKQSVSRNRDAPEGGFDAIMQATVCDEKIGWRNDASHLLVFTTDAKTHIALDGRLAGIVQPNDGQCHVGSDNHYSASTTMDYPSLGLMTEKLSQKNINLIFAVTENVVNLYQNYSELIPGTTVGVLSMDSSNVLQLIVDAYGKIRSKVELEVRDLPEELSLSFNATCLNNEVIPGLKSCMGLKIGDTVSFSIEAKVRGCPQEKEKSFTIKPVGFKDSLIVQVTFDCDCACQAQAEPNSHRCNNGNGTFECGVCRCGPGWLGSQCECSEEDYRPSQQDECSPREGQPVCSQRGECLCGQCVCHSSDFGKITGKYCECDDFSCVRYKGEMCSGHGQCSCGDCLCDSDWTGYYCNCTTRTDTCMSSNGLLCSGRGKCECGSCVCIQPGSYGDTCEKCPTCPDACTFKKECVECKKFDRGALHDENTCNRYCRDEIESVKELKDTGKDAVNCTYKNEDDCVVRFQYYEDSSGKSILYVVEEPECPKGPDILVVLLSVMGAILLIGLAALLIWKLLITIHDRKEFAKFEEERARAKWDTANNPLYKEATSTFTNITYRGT

[4] = tested on: SKNF1 neuroblastoma tumors; experiment: Cy5 fluorescence imaging of subcutaneously implanted SKNF1 tumor in athymic female mice; format: in vivo; settings: Cy5 labeled; 1-24 hours post-administration; compared with triazole tetrac derivative alone or benzyl guanidine derivative alone
Description: Athymic female mice were implanted twice each with 10^6 cells/implant. The SKNF1 cell line was used with subcutaneous xenografts.
Group 1 consisted of three mice and were treated with PEG-TAT-dye (Cy5). Group 2 consisted of three mice and were treated with PEG-BG-dye (Cy5). Group 3 consisted of three mice and were treated with TAT-PEG-BG-dye (Cy5) wherein the TAT and BG were covalently linked with a PEG linker as compound 300. The treatment groups are shown below:
Fluorescence imaging (Cy5) was conducted 1 hour, 2 hours, 4 hours, 6 hours, and 24 hours post-administration. Imaging results are shown in FIGS. 13a and 13b, in which the tumor location is circled in yellow and the Cy5 dye appears as red.

[5] = tested on: neuroblastoma SKNF2 cells; experiment: Composition 300 dose response on subcutaneously implanted SKNF2 neuroblastoma tumor in female nude mice; format: in vivo; settings: for tumor shrinkage (tumor weight) / tumor cell viability / tumor cell necrosis rate: 15 days; for tumor cell viability: control 70-75%
Description: The efficacy of Composition 300 (BG-P-TAT) was tested using neuroblastoma SKNF2 cells implanted into nude female mice.
Fifteen (15) female nude mice were implanted with twice with 10^6 cells/implant. The SKNF2 cell line was used with subcutaneous xenografts.
Eight (8) days following implantation, the mice were divided into four groups receiving the following treatment for 15 days:
Following fifteen (15) days of treatment, tumors were collected in order to evaluate histopathology, and the following results were collected: […]

[6] = tested on: SKNF2 cell lines; experiment: Comparative examples: BG, BG derivatives, TAT derivative and co-administration versus Composition 300 in mice implanted with SKNF2 cell lines; format: in vivo; settings: 3 mg/kg subcutaneously daily for 15 days (FIGS. 12a, 12b)

Compound: N=C(N)NCc1ccccc1 [BG, benzyl guanidine]
Percentage of Tumor Growth Suppression [1]: 40-50%
Reduction of tumor viability [1]: 40-50%

IC50 [3]: 0.3 nM
fold increase in binding affinity relative to BG-P-TAT ([3]; αvβ3 binding): ~30 fold
Compound: N=C(N)NCc1ccc(OCCOCCOCCOCCOCCOCCOCCOCCN2CCN(CCCOc3c(I)cc(Oc4c(I)cc(CC(=O)O)cc4I)cc3I)CC2)cc1 [Composition 15]
tumor volume over twenty days ([2]; 3 mg/kg subcutaneously, 20 days, control rose from 175 mm^3 to 1000 mm^3): no substantial increase
areas of necrosis, fibrosis and cell debris (H&E staining) ([2]; 3 mg/kg, 20 days of treatment): approximately 98%
decrease in tumor weight versus control ([2]; 3 mg/kg, 20 days of treatment): 90%

Compound: N=C(N)NCc1ccc(OCCOCCOCCOCCOCCOCCOCCn2cc(COc3c(I)cc(Oc4c(I)cc(CC(=O)O)cc4I)cc3I)nn2)cc1 [Composition 300, 2-(4-(4-((1-(20-(4-(guanidinomethyl)phenoxy)-3,6,9,12,15,18-hexaoxaicosyl)-1H-1,2,3-triazol-4-yl)methoxy)-3,5-diiodophenoxy)-3,5-diiodophenyl)acetic acid]
retention time within the tumor (Cy5 fluorescence) [4]: marked improvement
uptake into the SKNF1 neuroblastoma tumors (Cy5 fluorescence) [4]: marked improvement; also recorded: highest intensity accumulation
reduction of viability of residual tumor ([1]; 3 mg/kg): 80%
tumor weight shrinkage / reduction versus control (PBS) ([1]; 3 mg/kg subcutaneously daily for 15 days (FIGS. 12a, 12b), listed as BG-P-TAT): 80%
Percentage of Tumor Growth Suppression [1]: 80-90%
Reduction of tumor viability [1]: 80-90%
IC50 [3]: 10.3 nM
tumor shrinkage (tumor weight) ([5]; 1 mg/kg daily): 60%
tumor cell viability ([5]; 1 mg/kg daily): 50%
tumor cell necrosis rate ([5]; 1 mg/kg): approximately 50%
tumor shrinkage (tumor weight) ([5]; 3 mg/kg daily): 80%
tumor cell viability ([5]; 3 mg/kg daily): 20
tumor cell necrosis rate ([5]; 3 mg/kg): approximately 80%
tumor shrinkage (tumor weight) ([5]; 10 mg/kg daily): 100%
tumor cell viability ([5]; 10 mg/kg daily): 0.00%
tumor volume after 15 days of treatment ([5]; 10 mg/kg group, start approximately 825 mm^3, control rose to 1050 mm^3): ~100 mm^3
tumor cell necrosis rate ([5]; 10 mg/kg): ~100%
effect on animal body weight ([5]; 1, 3 and 10 mg/kg subcutaneously daily for 15 days, versus control animals): no effect; also recorded: no significant changes
cancer cell necrosis ([5]; at the 3 and 10 mg/kg doses (FIG. 11 legend)): 80-100%
abnormal animal head movements (circling) seen in control mice ([5]; treated mice, 1-10 mg/kg): disappearance
tumor vasculature ([5]; treatment groups 1-10 mg/kg versus control): clearly diminished

Compound: N=C(N)NCc1cccc([131I])c1 [MIBG, meta-iodobenzylguanidine]
Percentage of Tumor Growth Suppression [1]: 40-50%
Reduction of tumor viability [1]: 40-50%

Compound: beta cyclodextrin triazole tetrac [TAT]
Percentage of Tumor Growth Suppression [1]: 40-50%
Reduction of tumor viability [1]: 40-50%
tumor weight shrinkage / reduction versus control (PBS) [6]: 40-50%
